Assay [1] concerns p-ERK in LNCaP cells. Put plainly: Immunoblot of ERK phosphorylation. The note with it: highest dose, 24 h. It counts as cell-based, human. As to the method: The whole-cell lysates were prepared as described previously in immunoprecipitation (IP) buffer containing 50 mM Tris-HCl (pH 8.0), 150 mM NaCl, 5 mM EDTA, and 1% Triton X-100. Protein aliquots of 500 μg were then incubated overnight at 4°C using 2 μg of antibody directed against AR. The Protein A-Cl Agarose beads were then added and further incubated for 6 h at 4°C. The immunoprecipitates were washed four times with the IP buffer and the immunocomplexes were recovered by boiling in SDS sample buffer. Finally the western blot was carried out using anti-AR, anti-SRC-1 and anti-GRIP-1 antibodies (Santa Cruz, CA, USA). For western blot analysis, the cell lysates were prepared after harvesting them in lysis buffer. About 40 μg of total protein was electrophoresed by 12% SDS-PAGE, and the western blotting was carried out using standard protocol. In brief, the analyzed proteins were transferred to nylon membranes. The blots were then blocked with TBST buffer (20 mM Tris-Cl, pH 7.5, 150 mM sodium chloride, 0.05% Tween-20) containing 5% skim milk powder. They were then washed with TBST buffer and incubated overnight at 4°C with the same buffer containing appropriate amounts of primary antibodies: caspase-3, Bax, Bcl-2, Akt, p-Akt, ERK, p-ERK, AR, SRC-1, GRIP-1 (1∶500) and β-actin (1∶1000). […]
Background: A western blot detects proteins with antibodies after separation by electrophoresis.

Assay [2] concerns the target T1, androgen receptor in LNCaP cells (Homo sapiens, UniProt P10275, T878A).
T1 construct: LNCaP cells, that express endogenous AR; endogenous in cells; host or cells: LNCaP
T1 sequence (P10275 1-920 T878A): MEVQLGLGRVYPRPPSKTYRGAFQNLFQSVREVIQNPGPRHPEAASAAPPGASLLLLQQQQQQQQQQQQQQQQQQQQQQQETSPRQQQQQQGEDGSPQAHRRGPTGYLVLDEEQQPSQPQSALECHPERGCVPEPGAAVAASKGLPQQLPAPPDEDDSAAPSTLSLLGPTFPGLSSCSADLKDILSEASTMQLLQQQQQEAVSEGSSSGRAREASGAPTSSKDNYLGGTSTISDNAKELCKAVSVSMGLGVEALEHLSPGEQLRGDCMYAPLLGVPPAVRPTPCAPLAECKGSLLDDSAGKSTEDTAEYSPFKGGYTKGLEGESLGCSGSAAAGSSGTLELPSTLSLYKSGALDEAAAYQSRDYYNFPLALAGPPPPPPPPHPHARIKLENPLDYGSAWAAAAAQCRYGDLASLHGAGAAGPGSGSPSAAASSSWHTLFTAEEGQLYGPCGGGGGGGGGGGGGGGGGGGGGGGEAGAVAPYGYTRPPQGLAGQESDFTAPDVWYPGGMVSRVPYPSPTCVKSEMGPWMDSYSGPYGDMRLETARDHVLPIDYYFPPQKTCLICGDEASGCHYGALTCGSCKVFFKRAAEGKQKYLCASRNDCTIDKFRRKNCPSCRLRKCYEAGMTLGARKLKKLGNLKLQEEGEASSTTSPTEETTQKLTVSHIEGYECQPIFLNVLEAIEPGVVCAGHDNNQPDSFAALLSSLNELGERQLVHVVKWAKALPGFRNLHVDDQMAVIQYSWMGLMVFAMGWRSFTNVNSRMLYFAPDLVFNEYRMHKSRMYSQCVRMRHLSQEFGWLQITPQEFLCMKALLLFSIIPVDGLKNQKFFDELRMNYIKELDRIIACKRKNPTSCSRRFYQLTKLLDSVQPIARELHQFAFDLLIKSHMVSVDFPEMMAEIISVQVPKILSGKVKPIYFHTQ
Put plainly: AR transactivation luciferase assay with/without exogenous SRC-1 and GRIP-1. In kind it is cell-based. As to conditions: 10 μM with DHT. The protocol: The LNCaP cells were grown and transiently transfected with pMMTV-neomycin-luciferase plasmid (300 ng/10^5 cells) in RPMI media supplemented with 10% FBS using polyfect transfection reagent (Qiagen, CA, USA) according to manufacturer’s instructions. […] In case of PC-3 cells, they were similarly transfected, but in addition to pMMTV-neomycin-luciferase construct, they were also transfected with pSG5-hAR-puro plasmid (full length hAR in pSG5 expression vector) in the ratio of 5∶1 as indicated above. For experiments involving co-regulators, 50 ng of co-activator plasmids (25 ng each of GRIP-1 and SRC-1) along with pMMTV-neo-luc (250 ng) were transfected to LNCaP cells. To evaluate the transfection efficiency, 500 ng/105 cells of the SV40 promoter-Renilla luciferase (pRL-SV40) vector (Promega Madison, USA) were co-transfected as internal control. […] The values of luciferase for each lysates were normalized to the Renilla luciferase activity.

`COc1cc(/C=C/c2ccc(O)c(/C=N/NC(N)=S)c2)cc(OC)c1` [conjugate, Pterostilbene-isothiocyanate conjugate]: the “inhibition of p-ERK” value in assay [1] was “almost completely inhibited”. For the same molecule, the “AR transactivation (DHT alone = 100%)” value is given as 102% in assay [2] (with exogenous SRC-1 and GRIP-1); 64% in assay [2] (without exogenous co-activators).

Values taken from paper PMC3974779, “Pterostilbene-Isothiocyanate Conjugate Suppresses Growth of Prostate Cancer Cells Irrespective of Androgen Receptor Status” (PLoS ONE, 2014).
